{"source": "patent US20180177729A1", "about": "“G PROTEIN-COUPLED RECEPTORS INCORPORATED INTO REHYDRATED POLYMER VESICLES RETAIN FUNCTIONALITY” (UNIVERSITY OF SOUTHERN CALIFORNIA, priority 2016, published 2018)", "molecular_target": "T1, human serotonin 5-HT1A receptor (5-HT1AR) (Homo sapiens, UniProt P08908)", "T1 construct": "purchased Perkin Elmer", "T1 sequence (P08908 1-422)": "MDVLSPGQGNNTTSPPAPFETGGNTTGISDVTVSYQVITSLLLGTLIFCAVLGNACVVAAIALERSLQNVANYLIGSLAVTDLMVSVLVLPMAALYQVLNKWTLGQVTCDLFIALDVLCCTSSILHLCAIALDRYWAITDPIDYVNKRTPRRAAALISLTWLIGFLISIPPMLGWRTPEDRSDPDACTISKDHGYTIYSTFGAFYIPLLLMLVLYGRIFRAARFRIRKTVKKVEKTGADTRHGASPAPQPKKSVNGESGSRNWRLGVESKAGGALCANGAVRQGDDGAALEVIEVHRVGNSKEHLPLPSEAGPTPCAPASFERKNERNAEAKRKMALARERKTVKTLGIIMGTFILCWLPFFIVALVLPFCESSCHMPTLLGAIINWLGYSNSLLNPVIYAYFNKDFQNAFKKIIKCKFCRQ", "experiment": "5-HT1A activity assay via microplate reader (BODIPY-GTPγS unquenching) in pGUPs", "assay_type": "biochemical", "conditions": "for Rate (protein functional rate): agonist 8-OH-DPAT, 37° C., 12 hours", "experimental": "Fluorescence unquenching of BODIPY-GTPγS due to G protein binding was monitored every 5 minutes. Tracked fluorescence over time was first calculated as percent intensity increase to account for variation in sample size. Curves represent six independent replicates of the same experimental protocol and each time point is an average of the intensity increase. Curves were then normalized for ease in viewing the differences in protein functional rate.\n25 mm no. 1 coverslips were cleaned via sonication in MeOH for 30 minutes at 35° C. Coverslips were dried and were further plasma treated in a PDC-32G benchtop plasma cleaner (Harrick Plasma, USA) for 15 minutes. Coverslips were held in Sykes-Moore chambers for vesicle formation. Protein-incorporated polymeric giant unilamellar protein-vesicles (pGUPs) were formed using methods similar to those previously published for lipid vesicles. Briefly, a 1:1 v/v mixture of membrane fragment suspension and agarose (3% w/v) at 45° C. was drop casted onto coverslips for thin film formation. The hydrogel film was allowed to gel and a film of polymer solution (5 mg/ml in CHCl3) was subsequently made. Solvent was evaporated using a stream of N2 gas. […] Vesicles were harvested from the coverslip and diluted in 3× of an isoosmotic glucose solution (200 mM glucose in PBS, pH 7.4). (p)GUPs were allowed to sediment in glucose for 30 minutes at room temperature.\nPrepared and settled pGUPs were transferred to a flat bottom 96-well plate. Agonist 8-OH-DPAT was added to each well to a final concentration of 150 nM immediately prior to reading fluorescence. Control pGUPs were run without the addition of the agonist. Rehydration buffer with and without agonist and protein were read as positive and negative controls. Samples were read at physiological temperature (37° C.) every 5 minutes for twelve hours to ensure complete activity assessment. Fluorescence reading of BODIPY-GTPγS unquenching was done on a Biotek Synergy H4 Microplate Reader equipped with a xenon flash lamp. Excitation was set to 485/20 nm and emission at 528/20 nm at a read height of 7 mm.\nFluorescence microtiter results were collect and analyzed using JMP. Six separate observations were fitted and averaged to obtain a single curve with standard error mean values. Rates were fitted to the JMP Mechanistic Growth curve using a single exponential. Statistical analysis using a Tukey-Kramer pairwise comparison of means were done using JMP with a 95% confidence interval (α=0.05)."}
{"smiles": "COc1ccccc1N1CCN(CCCCN2C(=O)c3ccccc3C2=O)CC1", "note": "[NAN-190]", "values": [{"measurement": "Rate (protein functional rate)", "setting": "14 μM antagonist in pGUPs", "value": 0.057, "unit": "min⁻¹"}, {"measurement": "Effect on protein functional rate", "setting": "antagonist in pGUPs", "value": "reduce the protein functional rate"}]}
{"smiles": "O=C(CCCN1CCC2(CC1)C(=O)NCN2c1ccccc1)c1ccc(F)cc1", "note": "[Spiperone, spiperone]", "values": [{"measurement": "Rate (protein functional rate)", "setting": "14 pM antagonist in pGUPs", "value": 0.102, "unit": "min⁻¹"}, {"measurement": "Rate (protein functional rate)", "setting": "14 nM antagonist in pGUPs", "value": 0.096, "unit": "min⁻¹"}, {"measurement": "Rate (protein functional rate)", "setting": "14 μM antagonist in pGUPs", "value": 0.077, "unit": "min⁻¹"}]}
